Among the data in a melting point compilation (Tetko et al.; mined from patent text by program, amines drawn as free bases though some values may be those of a salt) are melting point values, retold here.

As usually defined, the melting point is the temperature, or range, at which the solid turns liquid.

Counter-ions that a name gives are not always drawn. Residues, ends and D or L forms follow the SMILES beside them. *: point of attachment. Tfa = O=C(C(F)(F)F)* Bounds are passed on as bounds.

`Cc1c(CC(=O)O)c2cc(OCc3ccc4ccccc4n3)ccc2n1Cc1ccc(C(=O)O)cc1` registered a melting point of 232 to 234 °C.
As for `Cn1c(C(=O)c2ccc(Cc3ccc(F)cc3)o2)c(O)c(=O)n1C`, the melting point fell in the range of 110 to 111 °C.
Next, `CC(C)(C)c1ncn(Sc2ncc([N+](=O)[O-])s2)n1`: 219 to 221 °C; `Cc1nc(N2CCOCC2)ccc1N1CCCn2c1nc1c(Cl)ccc(C(OC(F)F)C(F)(F)F)c12` (stereo not drawn): 191 to 193 °C; `C[C@@H](S[C@H]1CO[C@H](c2ccc(C(=O)NCc3ccc(C#N)cc3)cc2)OC1)[C@](O)(Cn1cncn1)c1ccc(F)cc1F`: 188 °C.
Regarding `CNCC1Cc2cc(-c3ccccc3)cc(-c3ccc(OC)cc3)c2O1` (stereo not drawn), the melting point is greater than 250 °C.
The value for `CN(CCN1CCNC1=C(C#N)C#N)Cc1ccc(CN2CCCCC2)o1` was 140 to 143 °C; that for `COc1cc(/C=[N+](\[O-])C(C)C)ccc1O` was 178 to 180 °C.
`Cc1cc2[nH]c(=O)c(C(=O)O)nc2cc1-n1ccc(CNC(=O)Nc2ccc(C(=O)O)cc2)c1` came in with a melting point greater than 300 °C.
The molecule `COc1ncccc1-c1cccn2nc(Nc3ccc(C4CCN(C(=O)OC(C)(C)C)CC4)cc3)nc12` showed a melting point of 101 to 103 °C.
Take `CNC(=O)CC1CN=C(c2cc3cc(Oc4ccc(S(C)(=O)=O)nc4)ccc3[nH]2)S1` (stereo not drawn): the melting point lay within 178 to 180 °C.
In the case of `Cn1c(-c2ccc(O)c(F)c2)cc2ncccc2c1=O`, the melting point was in the range of 182 to 184 °C.
Next, `COc1nsc(Cl)c1Cl`: 46 to 48 °C; `C=CCOc1cccc2oc(C(=O)OCC)c(C)c12`: 64 to 65 °C; `Cn1c(=O)ccc2ccc(N)cc21`: 268 to 269 °C.
Next, `CC(=O)N1CC(=O)C2=C(C1)CN1NC(N3CCOCC3)=NC1=N2`: 310 to 313 °C.
As to `CCCCOc1ccc(CCCCCCCCC(=O)NO)cc1`, the melting point lay within 99 to 101 °C.
Turning to `COc1cnc(C)c(C)c1OC`, the melting point was 36 to 38 °C.
Next, `COC(=O)CCCCCNC(=O)C(COS(C)(=O)=O)NS(=O)(=O)c1ccc(Cl)cc1` (racemic): 81 to 84 °C.
Next, `CNC(=O)N1Cc2ccccc2CCC1=O`: 140 to 141 °C; `Nc1ccc2ccc(-c3ccccc3Cl)nc2n1`: 193 °C; `O=C(O)C=CC=CC=CC1=Cc2cc(-c3ccccc3)ccc2OC1`: 260 °C.
The value for `Cc1nc2c(O)c(CCC(=O)c3ccccc3)c(C(=O)N3CCC3)cc2n1C` was 242 to 243 °C; that for `COc1ccc(-c2[nH]nc(C(=O)Oc3ccccc3)c2N)cc1` was 286 to 291 °C; that for `Cc1cc(C)cc(NC(=O)Cc2ccc(O)cc2)c1` was 183 to 185 °C.
On to `O=c1[nH]c2ccc(Cl)cc2c2nc(-c3cccnc3)nn12`, for which the melting point fell in the range of 189 to 193 °C.
Next, `CCCC/C(=C\C(=O)O)c1cnc(CCCC)n1Cc1ccccc1Cl`: 131 to 132 °C; `CCn1cccc1C(=O)O`: 77 to 78 °C; `CCN(C)c1nc2cc(NC(=O)c3c(C(=O)O)cnn3C)ccn2n1`: greater than 250 °C.
The molecule `CC(C)(C)c1cc(CCc2ccccc2NC(=O)NC2CCN(Cc3ccccc3F)CC2)cc(C(C)(C)C)c1O` yielded a melting point of 136 to 137 °C.
The value for `COc1ccc(CCC(=O)Nc2c(C)c(C)c3c(c2C)C(c2ccc(C(C)C)cc2)C(C)(C)O3)cc1` (stereo not drawn) was 188 to 191 °C; that for `CN1C(=O)c2ccccc2N=C(NCCc2ccccc2)C1c1ccccc1` (stereo not drawn) was 173 to 174 °C; that for `O=S(=O)(c1ccc(Cl)cc1)C(c1cccc(CCc2ccccn2)n1)c1cc(F)ccc1F` (stereo not drawn) was 88 to 89 °C.
Molecule `Fc1ccc2c(C3CCN(CCCOc4ccccc4)CC3)noc2c1` gave a melting point of 78 to 80 °C.
Next, `O=C1CCC2(Cc3ccc(Br)cc3)C(=O)N(c3cc(Cl)cc(Cl)c3)C(=O)N12` (stereo not drawn): 230 °C; `COc1cc(C=C2C(=O)NC(=O)N2C)ccc1O`: 197 to 198 °C; `COc1ccc(CCS(N)(=O)=S)cc1` (stereo not drawn): 186 to 187 °C.
Next, `N#CC(N)COc1ccc(Oc2ccccc2)cc1` (stereo not drawn): 76.7 °C.
Next, `Cn1cnc2cc(C(=O)NC3CC3)c(NC(=O)c3cc(C(F)(F)F)nn3-c3ncccc3Cl)c(Cl)c21`: 148 to 151 °C; `O=C(CCCCOc1ccc(O)cc1)C(F)(F)F`: 63 to 64 °C.
Take `Cc1cccc2ncc(C(=O)Nc3ccc(F)cc3)c(=O)n12`: the melting point was in the range of 202 to 204 °C.
The value for `CCC12CC(Cl)C3C4CCC(=O)C=C4CCC3C1C(O)CC2=O` (stereo not drawn) was 169 to 170 °C; that for `Cc1c(CO)cc(-c2ccc(S(C)(=O)=O)cc2)n1-c1ccc(F)cc1` was 140 to 142 °C.
The molecule `N#Cc1cnn2c(-c3cccc([N+](=O)[O-])c3)ccnc12` came in with a melting point of 244 to 246 °C.
On to `CCOC(=O)C1=C(COCc2cccnc2)NC(COCc2cccnc2)=C(C(=O)OCC)C1c1cccc([N+](=O)[O-])c1`, for which the melting point lay in the range of 169 to 171 °C.
Molecule `COc1cc(-c2cc(Br)cs2)cc2oc(=O)c(C)c(C)c12` registered a melting point of 131 to 134 °C.
`Cc1cc(C)cc(-c2cc(C(=O)NCCCCCCCc3ccccc3)cc(-c3cc(C)cc(C)c3)c2OCCCC(=O)O)c1` had a melting point of 64 to 66 °C.
Consider `COc1ccc(NC(=O)c2nc3c(s2)C(=O)C=C(NCCCN(C)CCCNC2=CC(=O)c4sc(C)nc4C2=O)C3=O)cc1`, for which the melting point is 141 to 142 °C.
On to `O=C(Oc1ccccc1)N1CCC2(CC1)c1ccccc1Sc1ccccc12`, for which the melting point lay within 149 to 151 °C.
As to `COc1ccc(C(=O)C=C2CCCN2)cc1`, the melting point lay within 134 to 135 °C.
The value for `C#CC[C@H](c1nc2cc(Cl)ccc2c(=O)n1Nc1ccccc1)N(CCCN)C(=O)c1cc(F)cc(F)c1` was 165 to 167 °C; that for `CC1=CC(c2cccc(Br)c2)C2=C(CCCC2=O)N1` (stereo not drawn) was 187 to 191 °C; that for `O=C(O)c1ccc(N2C(=O)CCC2C(=O)O)c([N+](=O)[O-])c1` (stereo not drawn) was 235 to 237 °C.
On to `C=CCN1CCC2(CC1)c1ccccc1C(=O)c1c(OC)cccc12`, for which the melting point is 115 to 117 °C.
The value for `CCOc1ccc(C2(c3ccc(OC)cc3)CC2(Cl)Cl)cc1` (stereo not drawn) was 114 to 117 °C.
Next, `C#CCN(C)C(=S)Nc1ccccc1CC(=O)OC`: 83 to 84 °C.
Next, `O=c1[nH]c2ccccc2cc1Br`: 263 to 265 °C.
In turn, `CC1CCN(C2=Nc3cc(Br)ccc3N3CCc4cccc2c43)CC1` yielded a melting point of 177 to 179 °C.
Consider `O=C(Cc1ccccc1)N1CCCSC1=C[N+](=O)[O-]`, for which the melting point was 121 to 122 °C.
Molecule `Cc1ccc(S(=O)(=O)N2CCC(c3ccc(C=O)cc3)CC2)cc1` came in with a melting point of 134 to 137 °C.
The molecule `S=C(N1CCOCC1)C1(c2ccccn2)CCCS1` (stereo not drawn) returned a melting point of 139 °C.
`COc1ccc(-c2cc(-c3c(-c4cccc(C)n4)nc4ccccn34)ccn2)cc1` returned a melting point of 174 °C.
Next, `Cn1c(-c2ccc(O)cc2)cc2ccc(O)cc21`: 200 to 204 °C; `Cc1cccnc1CS(N)(=O)=O`: 155 to 158 °C.
The value for `O=C(O)CNC(=O)CNC(=O)C(F)(F)F` (Tfa-Gly-Gly-OH) was 185 °C; that for `CCOC(=O)C(C)(C(=O)OCC)c1cccc(C(=O)c2ccccc2)c1[N+](=O)[O-]` was 102 to 104 °C.
Molecule `CCC(=O)OCOC(=O)C1=C(C)NC(C)=C(C(=O)OC)C1c1cccc(Cl)c1Cl` (stereo not drawn) returned a melting point of 124 to 126 °C.
The value for `Cc1c(NC(=O)c2ccc(-c3ccc(F)cc3)cc2)ccc2cc(CN3CCCC3C3CCCCC3)cnc12` (stereo not drawn) was 204 to 205 °C.
In turn, `CCCCCCCCCCCCCCOCCCSCCCO` registered a melting point of 38 to 41 °C.
As to `CC(C)(Sc1ccc2c(-c3ccc(Cl)cc3)noc2c1)C(=O)O`, the melting point lay in the range of 176 to 177 °C.
The value for `COC(=O)CC(NC(=O)C1CCCCC1)C(C)=O` (stereo not drawn) was 87 to 88 °C; that for `CC(C)N(NC(=O)c1ccc(Cl)c(Cl)c1)C(=O)c1ccccc1` was 157 °C.
Next, `O=C1NC(=O)C(C2C3CCCC32)O1` (stereo not drawn): 135 to 141 °C; `Cc1nc(N2CCC(NCc3ccc(F)cc3)C2=O)sc1C(=O)NCc1ccc(F)cc1` (stereo not drawn): 123 to 124 °C; `CC1(C)CCSc2cc(-c3cc(-c4ccc(C(=O)O)cc4)ccc3-c3ccccc3)ccc21`: 180 °C.
Turning to `CC(C)C(C(=O)O)N(CCN1CCOCC1)S(=O)(=O)c1ccc(-c2ccc(NC(=O)c3cc4ccccc4o3)cc2)cc1` (stereo not drawn), the melting point fell in the range of 181 to 185 °C.
Next, `Cc1ccsc1C=C(O)C(=O)O`: 184 to 185 °C; `CCOC(=O)CNC(=O)CN1CCCC1=O`: 63 to 64 °C; `CC(C)(C)OC(=O)c1ccc(N(Cc2ccc(C(=O)O)cc2)Cc2cc(Br)ccc2OCc2ccccc2)cc1`: 110 °C.
The value for `COc1ccc2c(-c3ccccc3)c(C(=O)c3ccccc3OC)sc2c1` was 111 to 112 °C; that for `Cc1cc2n(c1C(=O)c1cccs1)CCC2C(=O)O` (stereo not drawn) was 166 °C.
With `CCc1ccc([N+](=O)[O-])cc1CNC(C)=O`, the melting point lay within 123 to 128 °C.
The value for `Cc1cc(-c2ccco2)ccc1-c1cc(C(F)(F)F)nn1-c1ccc(S(C)(=O)=O)cc1` was 175 to 177 °C.
`Cc1nc2c(N)nc3ccccc3c2n1CCCNC(=O)N1CCOCC1`: the melting point is 226 to 228 °C.
The value for `CCCCN1CCc2c(C)nc3ncnn3c21` was 72 to 75 °C; that for `c1ccc(P(CC[Si](c2ccccc2)(c2ccccc2)c2ccccc2)c2ccccc2)cc1` was 128 to 131 °C; that for `O=C(Nc1ccc(Oc2ccnc(NCCN3CCCCC3)n2)c2ccccc12)c1cc(F)cc(N2CCCCC2)c1` was 88 to 89 °C.
The value for `Nc1ccc2ncc(C(=O)NCc3ccc(Cl)cc3)c(O)c2c1` was greater than 225 °C.
